Consider seven molecules from ChEMBL document CHEMBL1159283, “Further brominated bis- and tris-indole alkaloids from the deep-water New Caledonian marine sponge Orina Sp” (J Nat Prod, 1995).

Activity calls are given as the source filed them. The rule behind the calls is not given here.

A short description of experiment [1]: Binding affinity to regulatory site of NMDA receptor at 5 ug/mL by glycine binding assay.
A short description of experiment [2]: Binding affinity to VIP receptor at 5 ug/mL.
The test system of experiment [3] is BOWES. The experiment in a line: Binding affinity to galanin receptor in human BOWES cells at 5 ug/mL. The class given is cell-based.
A short description of experiment [4]: Binding affinity to neurotensin receptor at 5 ug/mL.
In experiment [5] the target is Calcitonin gene-related peptide type 1 receptor (Homo sapiens) (UniProt Q16602). The experiment in a line: Binding affinity to CGRP receptor at 5 ug/mL.
Experiment [6] is described as follows: Antagonist activity at serotonin receptor in guinea pig ileum assessed as inhibition of serotonin-induced contraction. The following applies: Cavia porcellus. Type of experiment: functional, tissue-based.
In experiment [7] the target is Somatostatin receptor (Rattus norvegicus) (UniProt Q7TT86). Kind of experiment: Displacement of [125I]somatostatin from somatostatin receptor in rat cerebral cortices membrane at 5 ug/mL. Type of experiment: cell membranes.
The species entered for experiment [8] is Rattus norvegicus. The experiment in a line: Displacement of [3H]NPY from neuropeptide Y receptor in rat cerebral cortices membrane at 5 ug/mL. The class given is cell membranes.
Experiment [9] concerns the target T1, B2 bradykinin receptor (Homo sapiens) (UniProt P30411).
T1 sequence (whole entry): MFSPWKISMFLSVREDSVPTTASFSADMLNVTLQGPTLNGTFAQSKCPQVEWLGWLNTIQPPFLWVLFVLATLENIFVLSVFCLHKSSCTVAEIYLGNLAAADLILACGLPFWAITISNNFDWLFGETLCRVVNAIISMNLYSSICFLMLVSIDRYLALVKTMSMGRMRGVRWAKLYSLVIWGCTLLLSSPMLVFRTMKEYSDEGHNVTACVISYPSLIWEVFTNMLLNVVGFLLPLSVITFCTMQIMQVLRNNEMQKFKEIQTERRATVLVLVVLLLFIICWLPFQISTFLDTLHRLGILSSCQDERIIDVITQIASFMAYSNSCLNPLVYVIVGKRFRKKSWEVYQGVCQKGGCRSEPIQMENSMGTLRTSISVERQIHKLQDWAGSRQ
Kind of experiment: Displacement of [3H]bradykinin from bradykinin B2 receptor expressed in baculovirus-infected SF21 cells at 5 ug/mL.

Experiment [10] has as its target T2, Neuromedin-K receptor (Homo sapiens) (UniProt P29371).
T2 sequence (whole entry): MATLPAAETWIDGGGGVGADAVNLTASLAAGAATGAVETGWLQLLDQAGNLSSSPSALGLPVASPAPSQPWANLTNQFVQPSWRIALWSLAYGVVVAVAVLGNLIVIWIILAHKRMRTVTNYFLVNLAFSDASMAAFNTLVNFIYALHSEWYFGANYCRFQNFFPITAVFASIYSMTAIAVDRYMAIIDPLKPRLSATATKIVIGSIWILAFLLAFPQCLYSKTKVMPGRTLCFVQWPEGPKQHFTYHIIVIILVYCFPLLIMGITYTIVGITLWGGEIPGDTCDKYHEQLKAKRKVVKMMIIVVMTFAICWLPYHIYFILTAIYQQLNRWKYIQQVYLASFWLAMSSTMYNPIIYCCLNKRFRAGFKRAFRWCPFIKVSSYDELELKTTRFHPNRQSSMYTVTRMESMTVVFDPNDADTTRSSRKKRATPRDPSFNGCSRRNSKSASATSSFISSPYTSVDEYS
The experiment in a line: Binding affinity to NK3 tachykinin receptor at 5 ug/mL by senktide binding assay.

Experiment [11] can be described thus: Binding affinity to quisqualate site of glutamate receptor at 5 ug/mL by AMPA binding assay.

Chain of Somatostatin receptor (Rattus norvegicus) (Q7TT86 as listed by the source): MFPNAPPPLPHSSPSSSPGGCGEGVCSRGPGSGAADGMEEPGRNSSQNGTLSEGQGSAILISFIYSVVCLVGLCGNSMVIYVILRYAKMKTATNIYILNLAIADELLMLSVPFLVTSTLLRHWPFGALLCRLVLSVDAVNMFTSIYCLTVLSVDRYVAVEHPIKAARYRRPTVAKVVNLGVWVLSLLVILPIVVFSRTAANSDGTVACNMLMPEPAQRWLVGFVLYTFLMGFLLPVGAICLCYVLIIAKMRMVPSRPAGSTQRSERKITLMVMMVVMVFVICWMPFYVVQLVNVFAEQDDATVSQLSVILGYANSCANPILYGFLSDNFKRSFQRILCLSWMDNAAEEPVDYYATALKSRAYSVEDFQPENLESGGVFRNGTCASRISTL
Chain of Calcitonin gene-related peptide type 1 receptor (Homo sapiens) (Q16602 whole entry): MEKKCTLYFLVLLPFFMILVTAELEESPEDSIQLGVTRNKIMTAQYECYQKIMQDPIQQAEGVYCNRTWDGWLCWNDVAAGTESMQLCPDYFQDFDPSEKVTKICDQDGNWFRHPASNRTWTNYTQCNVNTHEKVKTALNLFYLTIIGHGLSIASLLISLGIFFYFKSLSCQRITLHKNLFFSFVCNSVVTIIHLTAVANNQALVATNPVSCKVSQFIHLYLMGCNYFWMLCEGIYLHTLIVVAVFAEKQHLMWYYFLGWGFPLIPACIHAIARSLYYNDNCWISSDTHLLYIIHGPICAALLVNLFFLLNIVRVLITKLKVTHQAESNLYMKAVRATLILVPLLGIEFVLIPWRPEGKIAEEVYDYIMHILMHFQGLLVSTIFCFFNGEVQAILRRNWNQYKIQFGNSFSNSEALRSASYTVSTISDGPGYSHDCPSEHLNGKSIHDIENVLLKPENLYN

For `NCCc1c(C(CN)c2c[nH]c3cc(Br)ccc23)[nH]c2cc(Br)ccc12` (racemic), the result in experiment [1], in experiment [2], in [3], in experiment [4], in experiment [5] and in experiment [10] was inactive. For the same molecule, the result in [11] was inactive. In addition, the IC50 in experiment [6] is 10 µM. This molecule also displayed an Activity in [7] of 91%. In addition, the inhibition came out at 67% in [8] and 89% in [9].
Turning to `NCCc1c[nH]c2ccc(O)c(C(CN)c3c[nH]c4cc(Br)ccc34)c12` (racemic), the half-inhibitory concentration (IC50) in [6] is 100 µM.
`NCCc1c(C(CN)c2c[nH]c3cc(Br)ccc23)[nH]c2cc(C(CN)c3c[nH]c4cc(Br)ccc34)c(O)cc12` (racemic): the result in experiment [1], in experiment [2], in experiment [3], in [4], in [5] and in experiment [10] was inactive. Further, in [11], the outcome was inactive. In addition, in experiment [7], the result was Active.
Take `NCCc1c(C(CN)c2c[nH]c3cc(Br)ccc23)[nH]c2ccc(O)c(C(CN)c3c[nH]c4cc(Br)ccc34)c12` (racemic): in experiment [6], the 50% inhibitory concentration (IC50) came out at 2 µM.
For the molecule `NCCc1c(C(CN)c2c[nH]c3cc(Br)ccc23)[nH]c2cc(C(CN)c3c[nH]c4cc(Br)ccc34)c(O)cc12` (stereo in doubt; form 1), the results for the inhibition in experiment [8] and in [9] were 90% and 100%, respectively.
Taken in the same sequence, the figures for `NCCc1c(C(CN)c2c[nH]c3cc(Br)ccc23)[nH]c2cc(C(CN)c3c[nH]c4cc(Br)ccc34)c(O)cc12` (stereo in doubt; form 2) were 62% and 93%.
With `NCCc1c(C(CN)c2c[nH]c3cc(Br)ccc23)[nH]c2ccc(O)cc12` (racemic), the result in [1], in [2], in [3], in [4], in experiment [5] and in experiment [10] was inactive. Besides, the result in [11] was inactive. The half-maximal inhibitory concentration (IC50) in [6] was found to be 50 µM. In addition, the Activity in experiment [7] was 87%. Further, the inhibition in experiment [8] and in [9] was 63% each time.
